Experimental findings from US11730712B2, “Functionalized long-chain hydrocarbon mono- and di-carboxylic acids and derivatives thereof, and their use for the prevention or treatment of disease” (ESPERVITA THERAPEUTICS, INC., priority 2021, dated 2023) are described below.

As usually defined, the IC50 is the concentration that gives 50% inhibition.

Values joined by “and” are separate entries in the source; they are usually repeats but may differ in a detail not shown here. Equal entries are not always repeated.

Holding throughout (format): biochemical
One experiment deals with T1, Aurora A (Homo sapiens, UniProt O14965).
T1 sequence (O14965 1-403): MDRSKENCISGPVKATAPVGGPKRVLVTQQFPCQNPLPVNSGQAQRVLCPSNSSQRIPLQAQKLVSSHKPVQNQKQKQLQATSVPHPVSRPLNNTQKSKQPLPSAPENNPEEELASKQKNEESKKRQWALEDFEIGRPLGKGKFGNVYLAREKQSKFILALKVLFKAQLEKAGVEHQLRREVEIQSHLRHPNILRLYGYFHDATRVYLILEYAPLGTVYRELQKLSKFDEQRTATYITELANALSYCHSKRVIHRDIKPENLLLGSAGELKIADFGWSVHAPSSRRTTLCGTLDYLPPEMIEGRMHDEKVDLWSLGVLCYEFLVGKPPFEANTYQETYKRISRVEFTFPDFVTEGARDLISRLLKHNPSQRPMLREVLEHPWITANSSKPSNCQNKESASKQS
The experiment in a line: Kinase assay, wild type kinases. The conditions noted are these: compound 10 μM, 10 μM ATP, duplicate (Data 1, Data 2), >100 activation, <100 inhibition; for remaining activity at 10 µM: read-out: % Enzyme Activity (relative to DMSO controls), Aurora A.

A further experiment concerns the target T2, AURORA C (Homo sapiens, UniProt Q9UQB9).
T2 sequence (Q9UQB9 1-309): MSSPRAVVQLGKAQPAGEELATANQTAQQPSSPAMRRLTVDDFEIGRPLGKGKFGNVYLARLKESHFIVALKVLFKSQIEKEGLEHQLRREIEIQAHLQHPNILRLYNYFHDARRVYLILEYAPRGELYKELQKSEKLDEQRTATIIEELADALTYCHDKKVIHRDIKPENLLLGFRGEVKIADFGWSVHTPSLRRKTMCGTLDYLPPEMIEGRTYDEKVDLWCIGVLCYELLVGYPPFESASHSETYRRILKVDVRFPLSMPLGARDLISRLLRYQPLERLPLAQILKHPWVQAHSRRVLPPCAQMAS
The experiment in a line: Kinase assay, wild type kinases. The conditions noted are these: compound 10 μM, 10 μM ATP, duplicate (Data 1, Data 2), >100 activation, <100 inhibition; for remaining activity at 10 µM: read-out: % Enzyme Activity (relative to DMSO controls), AURORA C.

The target in the next experiment is T3, ERK7/MAPK15 (Homo sapiens, UniProt Q8TD08).
T3 sequence (Q8TD08 1-544): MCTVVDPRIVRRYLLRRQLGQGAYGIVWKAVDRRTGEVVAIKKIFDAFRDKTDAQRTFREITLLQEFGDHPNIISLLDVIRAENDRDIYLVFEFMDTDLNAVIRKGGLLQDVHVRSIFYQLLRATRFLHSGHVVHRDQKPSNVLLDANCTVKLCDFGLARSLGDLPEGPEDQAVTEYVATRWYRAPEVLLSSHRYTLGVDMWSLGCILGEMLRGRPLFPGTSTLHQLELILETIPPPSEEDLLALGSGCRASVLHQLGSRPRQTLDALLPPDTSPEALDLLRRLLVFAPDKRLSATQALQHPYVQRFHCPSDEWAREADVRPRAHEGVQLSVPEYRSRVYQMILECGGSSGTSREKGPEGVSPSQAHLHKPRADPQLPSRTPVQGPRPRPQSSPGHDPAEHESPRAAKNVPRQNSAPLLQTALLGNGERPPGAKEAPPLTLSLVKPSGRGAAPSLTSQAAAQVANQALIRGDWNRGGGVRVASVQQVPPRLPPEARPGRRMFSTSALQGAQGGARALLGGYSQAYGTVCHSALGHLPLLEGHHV
Nature of the experiment: Kinase assay, wild type kinases. The following applies: compound 10 μM, 10 μM ATP, duplicate (Data 1, Data 2), >100 activation, <100 inhibition; for remaining activity at 10 µM: read-out: % Enzyme Activity (relative to DMSO controls), ERK7/MAPK15.

The target of another experiment is T4, Human ACC1 (Homo sapiens, UniProt Q13085).
T4 construct: FLAG (C); His (C); purchased BPS Biosciences 50202; host or cells: Baculovirus infected Sf9 cells
Nature of the experiment: ACC1 enzymatic assay (ADP-Glo). The conditions noted are these: recombinant human ACC1 5 nM, 10 μM ATP, 10 μM acetyl CoA; Run 1-3; read-out: Compound IC50 (M) ACC1. The protocol:
Human ACC1 (Cat#50202 Lot #120830) and ACC2 (Cat #50201 Lot #160217) were obtained from BPS Biosciences, San Diego, Calif. 92121. Human ACC1 had C-terminal flag and His-tags with a MW of 270 KDa after purification from Baculovirus infected Sf9 cell expression system and came as a solution in 50 mM Tris-HCl, pH 8.0, 500 mM NaCl, 10% glycerol, 1 mM DTT, 100 μg/ml FLAG peptide with 70% purity. The stock concentration was 0.25 mg/ml corresponding to 0.926 μM. Human ACC2 was also purified from Baculovirus infected Sf9 expression system. […] The stock concentration was 0.1 mg/ml corresponding to 0.36 μM. The assay buffer for measuring the activity of ACC contained: 30 mM HEPES (pH 7.4), 2 mM MgCl2, 0.01% Brij35, 2 mM DTT, 1% DMSO (solvent for compound). For ACC1 and ACC2 assays, the following concentrations of substrate and cofactors were used: 12 mM NaHCO3, 10 μM acetyl CoA, 10 μM ATP, and 2 mM K-citrate. The recombinant human enzyme was used at 5 nM for ACC1 and 1 nM for ACC2. In brief, enzyme alone in the above buffer without substrate was used for background. All test materials were dissolved in 100% DMSO using acoustic technology (Echo550). The prepared solution was preincubated for 15 min followed by the addition of 5 μL/well of ADP standard. ATP was then added to start the reaction. The assay contents were spun and briefly shaken followed by incubation at room temperature for 1 h. At the end of completion of assay, 5 μL of ADP-Glo was added to each well to stop the reaction. The contents were mixed, spun and incubated at room temperature for 40 min followed by the addition of 10 μL/well of ADP detection reagent. The contents were spun, mixed and covered with plastic to measure luminescence. […] The light generated, measured in a luminometer, correlates to the amount of ADP generated in the ACC assay, which is indicative of ACC activity.
The enzyme concentrations for ACC1 and ACC2 were 5 nM and 1 nM, respectively.
Data represent nM or μM ADP produced, % Activity (relative to no inhibitor controls), and curve fits were performed by GraphPad Prism software. The IC50 concentration-response curves were generated for both the ACC1 and ACC2 assays using recombinant human ACC.

`CC(C)(CCCCc1ccc(CCCCC(C)(C)C(=O)O)cc1)C(=O)O` [Compound I-1, 6-[4-(5-carboxy-5-methylhexyl)-phenyl]-2,2-dimethylhexanoic acid]: the results for the remaining activity at 10 µM on Aurora A, at AURORA C and at ERK7/MAPK15 were 89.1%, 101% and 100%, respectively.

`CC(C)(CCCCc1ccc(CCCCC(C)(C)C(=O)SCCNC(=O)CCNC(=O)[C@H](O)C(C)(C)COP(=O)(O)OP(=O)(O)OC[C@H]2O[C@@H](n3cnc4c(N)ncnc43)[C@H](O)[C@@H]2OP(=O)(O)O)cc1)C(=O)O` [Compound I-1-CoA, 6-[4-(5-carboxy-5-methylhexyl)-phenyl]-2,2-dimethylhexanoic acid Coenzyme A ester]: the “% Enzyme Activity (relative to DMSO controls), Aurora A” value on Aurora A was 12.44% and 12.42%. For the same compound, the “% Enzyme Activity (relative to DMSO controls), AURORA C” value at AURORA C was 78.81% and 72.15%. For the same compound, the “% Enzyme Activity (relative to DMSO controls), ERK7/MAPK15” value at ERK7/MAPK15 was 51.57% and 45.02%. Also, on Human ACC1, the IC50 is 1.63e-05 M and 1.33e-05 M and 1.25e-05 M.

Regarding `CC(C)(CCCCc1cccc(CCCCC(C)(C)C(=O)O)c1)C(=O)O` [Compound I-32, 6-[3-(5-carboxy-5-methylhexyl)-phenyl]-2,2-dimethylhexanoic acid], the remaining activity at 10 µM is 94.9% at Aurora A, 104% at AURORA C and 104% at ERK7/MAPK15. Moreover, the IC50 on Human ACC1 was 0.000284 M and 0.000272 M and 0.00022 M.

For the compound `CC(C)(CCCCc1cccc(CCCCC(C)(C)C(=O)SCCNC(=O)CCNC(=O)[C@H](O)C(C)(C)COP(=O)(O)OP(=O)(O)OC[C@H]2O[C@@H](n3cnc4c(N)ncnc43)[C@H](O)[C@@H]2OP(=O)(O)O)c1)C(=O)O` [Compound I-32-CoA, 6-[3-(5-Carboxy-5-methylhexyl)-phenyl]-2,2-dimethylhexanoic acid Coenzyme A Ester], the “% Enzyme Activity (relative to DMSO controls), Aurora A” value at Aurora A is 13.04% and 11.95%. For the same compound, the “% Enzyme Activity (relative to DMSO controls), AURORA C” value at AURORA C is 48.46% and 46.83%. The “% Enzyme Activity (relative to DMSO controls), ERK7/MAPK15” value at ERK7/MAPK15 is 88.39% and 80.61%. Also, at Human ACC1, the IC50 is 5.07e-06 M and 5e-06 M and 6.03e-06 M.
